Earlier results in patent publication US20240344040A1, “PROKARYOTIC AND EUKARYOTIC CELLS WITH BIOSYNTHESIZED SULFOTYROSINE FOR GENETIC INCORPORATION” (William Marsh Rice University, priority 2023, published 2024).

Conditions: cells incubated with 1 mM pThr

## C[C@@H](OP(=O)(O)O)[C@H](N)C(=O)O [phosphothreonine]
  intracellular detection: cannot be detected intracellularly
